Tests used:
Carbonic anhydrase 2 = Carbonic anhydrase 2 (Homo sapiens, UniProt P00918)
Description: Inhibition of human recombinant isozyme CA2 by CO2 hydration method

Carbonic anhydrase 9 = Carbonic anhydrase 9 (Homo sapiens, UniProt Q16790)
Description: Inhibition of catalytic domain of human recombinant isozyme CA9 by CO2 hydration method

Row | Compound | Ki (Carbonic anhydrase 2) | Ki (Carbonic anhydrase 9)
1 | CC(=O)OC[C@H]1O[C@H](O[C@H]2[C@H](OC(C)=O)[C@@H](OC(C)=O)[C@H](OCc3cn(-c4ccc(S(N)(=O)=O)cc4)nn3)O[C@@H]2COC(C)=O)[C@H](OC(C)=O)[C@@H](OC(C)=O)[C@@H]1OC(C)=O | 7.8 nM | –
2 | NS(=O)(=O)c1ccc(-n2cc(CO[C@@H]3O[C@H](CO)[C@@H](O[C@H]4O[C@H](CO)[C@@H](O)[C@H](O)[C@H]4O)[C@H](O)[C@H]3O)nn2)cc1 | – | 84 nM
3 | CC(=O)OC[C@H]1O[C@@H](OCc2cn(-c3ccc(S(N)(=O)=O)cc3)nn2)[C@H](OC(C)=O)[C@@H](OC(C)=O)[C@H]1OC(C)=O | – | 9.7 nM
4 | [N-]=[N+]=Nc1ccc(S(N)(=O)=O)cc1 | – | 105 nM
5 | NS(=O)(=O)c1ccc(-n2cc(COC3OC[C@@H](O)[C@@H](O)[C@@H]3O)nn2)cc1 (some centres undefined) | 6.9 nM | 103 nM
6 | CC(=O)OC[C@H]1O[C@@H](OCc2cn(-c3ccc(S(N)(=O)=O)cc3)nn2)[C@H](OC(C)=O)[C@@H](OC(C)=O)[C@@H]1OC(C)=O | – | 107 nM
7 | CC(=O)O[C@H]1[C@H](OC(C)=O)C(OCc2cn(-c3ccc(S(N)(=O)=O)cc3)nn2)OC[C@H]1OC(C)=O (some centres undefined) | 9.3 nM | 72 nM

The remaining lines, values ahead:

Row | Ki (Carbonic anhydrase 2) | Ki (Carbonic anhydrase 9) | Compound
8 | 7.6 nM | – | NS(=O)(=O)c1ccc(-n2cc(CO[C@@H]3O[C@H](COCc4ccccc4)[C@@H](OCc4ccccc4)[C@H]3OCc3ccccc3)nn2)cc1
9 | – | 101 nM | NS(=O)(=O)c1ccc(-n2cc(CO[C@@H]3O[C@H](CO)[C@@H](O)[C@H](O)[C@H]3O)nn2)cc1
10 | 53 nM | 120 nM | NS(=O)(=O)c1ccc(-n2cc(CO[C@@H]3O[C@H](CO)[C@H](O)[C@H](O)[C@H]3O)nn2)cc1
11 | – | 69 nM | NS(=O)(=O)c1ccc(-n2cc(CO[C@@H]3O[C@H](CO)[C@@H](O)[C@H]3O)nn2)cc1

Source: ChEMBL document CHEMBL1142983, “Carbonic anhydrase inhibitors: inhibition of isozymes I, II, and IX with triazole-linked O-glycosides of benzene sulfonamides” (J Med Chem, 2007)
